“Also recorded” adds a separate entry of the source. Where only a bound is given, the exact number is not on record here.

The subject of series [1] is L. donovani intracellular amastigotes. Description: Growth inhibition of intracellular amastigotes in J774A.1 macrophages (Renilla luciferase luminescence). Type of series: cell-based. The conditions noted are these: Leishmania donovani, J774.A1; intracellular amastigotes in J774A.1 macrophages; mean ± standard deviation, n = 2; read-out: L. donovani EC50. Here is the method:
L. mexicana (MNYZ/BZ/62/M379) or L. donovani (LdBob strain) parasites expressing the Renilla luciferase gene from a rRNA gene locus were used to infect J774A.1 macrophages. Growth of intracellular amastigotes was measured using a luminescence assay, as detailed previously. The growth inhibitor activities of compounds were tested against bloodstream form Lister 427 T. brucei in 96-well plates containing 1 X 10^5 parasites per well in 0.2 ml HMI-11 medium (Gibco/Thermo Fisher). Compounds (2 μl volumes in DMSO) were added to the parasites using serial 3-fold dilutions to cover a range of concentrations from about 10 μM to 1 nM. After 48 h incubation at 37°C under a humidified 5% CO2 atmosphere, 10 μl of 10% Triton X-100 and 100 X stock SYBR Green I (Sigma-Aldrich) in PBS was added and florescence measured (excitation 497 nm; emission 520 nm) after 1 h incubation in the dark using a Spectra Max Gemini XPS fluorimeter (Molecular Devices). Data were log transformed and EC50 values were determined using GraphPad Prism 6 (GraphPad Software). In the absence of growth inhibiting compounds, the parasites grew from an initial density of 5 X 10^5 cells/mL to ~3 X 10^6 cells/mL.

A short description of series [2]: Parallel Artificial Membrane Permeability Assay (PAMPA). To be noted: pH 7.4. Here is the method: Parallel Artificial Membrane Permeability Assay (PAMPA) was conducted by Biomek FX lab automation workstation (Beckman Coulter, Inc.) and PAMPA evolution 96 command software (pION Inc.). A 3 µL aliquot of […] test compound stock in DMSO was mixed with 597 µL of isotonic citrate phosphate buffered saline to make diluted test compound. Diluted test compound (150 µL) was transferred to a UV plate (pION Inc.) and the UV spectrum was read as the reference plate. The membrane on a pre-loaded PAMPA sandwich (pION Inc.) was painted with 4 µL GIT lipid (pION Inc.). The acceptor chamber was then filled with 200 µL acceptor solution buffer, (pION Inc.), and the donor chamber was filled with 180 µL diluted test compound. The PAMPA sandwich was assembled, placed on the Gut-Box and stirred for 30 min. The Aqueous Boundary Layer was set to 40 µm for stirring. The UV spectrum (250-500 nm) of the donor and the acceptor solutions were recorded. The permeability coefficient was calculated using PAMPA Evolution 96 Command software (pION Inc.) based on the AUC of the reference plate, the donor plate and the acceptor plate. All compounds were tested in triplicate.

The nature of series [3]: Caco-2 permeability assay. Type of series: in vitro ADME. To be noted: human, pH 7.4; for Papp A→B at 2 h, 10 μmol/L / Papp B→A at 2 h, 10 μmol/L: Caco-2, mean ± standard deviation of three runs; for Papp A→B at 2 h, 10 μmol/L: read-out: Caco-2 (A→B) permeability coefficient; for Papp B→A at 2 h, 10 μmol/L: read-out: Caco-2 (B→A) permeability coefficient.
Series [4] is described as follows: Liver microsomal stability, mouse. To be noted: female, liver microsomes, pH 7.4. As for the experimental part:
One part of 10 mM DMSO compound stock was mixed with 4 parts of acetonitrile to make 2 mM diluted compound stock in DMSO and acetonitrile. 29.1 µL diluted compound stock was added to 2.3 mL liver microsomal solution and vortexed to make microsomal solution with compound. […] For the 0 h time point, 450 µL pre-cooled (4 °C) internal standard (10 µM warfarin in methanol) was added to the first three columns before the reaction was initiated. 1.25 ml of microsome assay solution A (Fisher Scientific, #NC9255727) was combined with 0.25 ml of solution B (Fisher Scientific, #NC9016235) in 3.5 ml of potassium phosphate buffer (0.1 M, pH 7.4). 45 µL of this A+B solution was added to each well of the 96-well storage plate (reaction plate). Liquid in the first 3 columns was moved to another storage plate (quenched plate). The reaction plate was then sealed, incubated at 37 °C, and shaken at a speed of 60 rpm. Time points (0.5 h, 1 h, 2 h) were taken. At each time point, 450 µL pre-cooled internal standard was added to 3 rows in the reaction plate, and the liquid was then transferred to the quenched plate. […] 200 µL supernatant was transferred to a 96-well plate and analyzed by ultra-performance liquid chromatography-mass spectrometry (UPLC-MS) (Waters Inc.). The compounds and internal standard were detected by selected ion recording (SIR).

Series [5] is described as follows: Dose-ranging tolerability / 10-day toxicity study in mice. Type of series: in vivo, mouse. Here is the method: Drug doses were chosen based on pilot toxicology and pharmacokinetic studies. Female BALB/C mice (compound 4) or C57BL6 (compound 5) of 17–21 grams were purchased from Charles River Laboratories (Wilmington, MA). Food and water were provided ad libitum. Two mice were used as control and another 5 mice were dosed daily via oral gavage (25 mg/kg with compound 4 and 50 mg/kg with compound 5). Every day blood was collected by retro-orbital bleed from one animal from the treatment group for pharmacokinetics. […] Each mouse received two blood collections and glucose measurements over the 10-day course of treatment.

The mark [6] stands for this setting: 50 mg/kg, 10-day toxicity study.

Regarding `COc1ccc(-c2c(C(F)(F)F)oc3c(CN4CCN(C)CC4)c(O)ccc3c2=O)cc1OC` [Compound 4], in series [1], the EC50 worked out at 600 ± 500 nM. The Papp at 30 min, 0.05 µM in series [2] came out at 375 ×10⁻⁶ cm/s. In series [3], the Papp A→B at 2 h, 10 μmol/L was determined as 49 ± 0.3 ×10⁻⁶ cm/s and the Papp B→A at 2 h, 10 μmol/L stood at 39 ± 0.7 ×10⁻⁶ cm/s. Besides, the half-life at 20 μM in series [4] is > 4 h. Further, the “Tolerability of daily oral administration” value in series [5] (daily oral, 25 mg/kg) is reported as “well-tolerated in all study animals; also recorded: No weight loss or other toxicity was observed”. Besides, in series [5] (oral gavage, 25 mg/kg), the Seizures entry is recorded as “no seizures were seen”. Further, in series [5] (oral gavage, 25 mg/kg, at Cmax and Cmin), the Glucose level result was “remained within normal limits”. In addition, in series [5] (oral gavage, 50 mg/kg), the “Seizures / seizure-like behavior” value was “half of the animals exhibited seizure-like behavior”. The “Glucose level in plasma” value in series [5] (oral gavage, 50 mg/kg, untreated mice 185–251 mg/dl) was 23 to 40 mg/dL.

As to `Cc1ccc(-c2nc3ccccc3s2)cc1NC(=O)c1cc([N+](=O)[O-])c(N2CCN(C)CC2)cc1Cl` [Compound 5], in series [1], the EC50 came out at 29 ± 27 nM. The Papp at 30 min, 0.05 µM in series [2] came to 237 ×10⁻⁶ cm/s. Moreover, the efflux ratio at 2 h, 10 μmol/L in series [3] (Caco-2, pH 7.4, Papp B→A / Papp A→B) was found to be 1.92. In series [3], the Papp A→B at 2 h, 10 μmol/L stood at 16.8 ± 2.4 ×10⁻⁶ cm/s and the Papp B→A at 2 h, 10 μmol/L is 32.2 ± 2.9 ×10⁻⁶ cm/s. The half-life at 20 μM in series [4] is > 4 h. For the same compound, in series [5] (setting [6]), the Food intake result is recorded as “reduced food intake” and the Weight loss entry is reported as “more than 10%”.
